Laboratory results as given in PubChem BioAssay (NCI).
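Exposure lasted 48 hours, with cells grown in 96-well plates and compounds tested at five concentrations. GI50 marks 50% less growth. At the TGI there is no net growth.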

Columns and labels:
Test in all cases: NCI tumour cell line growth inhibition, 48 h
[1] = tested on: SW-620 colon
[2] = tested on: UO-31 renal
[3] = tested on: NCI-H23 lung
[4] = tested on: SK-MEL-28 melanoma
[5] = tested on: NCI-H522 lung
[6] = tested on: MALME-3M melanoma
[7] = tested on: HOP-62 NSCLC
[8] = tested on: MDA-MB-435
[9] = tested on: 786-0 renal
[10] = tested on: PC-3 prostate
[11] = tested on: OVCAR-3 ovarian
[12] = tested on: LOX IMVI melanoma
[13] = tested on: OVCAR-8 ovarian
[14] = tested on: HL-60(TB) leukemia
[15] = tested on: UACC-62 melanoma
[16] = tested on: COLO 205 colon
[17] = tested on: MDA-MB-231 breast
[18] = tested on: HS 578T breast
[19] = tested on: TK-10 renal
[20] = tested on: SNB-19 CNS
[21] = tested on: NCI-H226 lung
[22] = tested on: A498 renal
[23] = tested on: OVCAR-4 ovarian
[24] = tested on: KM12 colon
[25] = tested on: ACHN renal
[26] = tested on: BT-549 breast
[27] = tested on: CCRF-CEM leukemia
[28] = tested on: HCT-116 colon
[29] = tested on: NCI/ADR-RES ovarian
[30] = tested on: HCT-15 colon
[31] = tested on: HOP-92 NSCLC
[32] = tested on: SF-539 CNS
[33] = tested on: HCC-2998 colon
[34] = tested on: A549 NSCLC
[35] = tested on: CAKI-1 renal
[36] = tested on: SK-OV-3 ovarian
[37] = tested on: M14 melanoma
[38] = tested on: IGROV1 ovarian
[39] = tested on: T-47D breast
[40] = tested on: RXF 393 renal
[41] = tested on: HT29 colon
[42] = tested on: SN12C renal
[43] = tested on: RPMI-8226 leukemia
[44] = tested on: SK-MEL-5 melanoma
[45] = tested on: UACC-257 melanoma
[46] = tested on: SR leukemia
[47] = tested on: DU-145 prostate
[48] = tested on: SK-MEL-2 melanoma
[49] = tested on: K-562 leukemia
[50] = tested on: MCF7 breast
[51] = tested on: NCI-H460 lung
[52] = tested on: U251 CNS
[53] = tested on: MOLT-4 leukemia
[54] = tested on: SNB-75 CNS
[55] = tested on: OVCAR-5 ovarian
[56] = tested on: SF-295 CNS
[57] = tested on: SF-268 CNS
[58] = tested on: EKVX NSCLC

Cc1cc(N(CCCl)CCCl)ccc1C=Nc1ccc2ccccc2c1
GI50 [1]: 41.9 µM | TGI [1]: > 100 µM | GI50 [2]: 8.71 µM | TGI [2]: > 100 µM | GI50 [3]: 6.12 µM | TGI [3]: > 100 µM | GI50 [4]: > 100 µM | TGI [4]: > 100 µM | GI50 [5]: 20.1 µM | TGI [5]: > 66.5 µM | GI50 [6]: 50.3 µM | TGI [6]: > 100 µM | GI50 [7]: 25.2 µM | TGI [7]: > 100 µM | GI50 [8]: 53.3 µM | TGI [8]: > 100 µM | GI50 [9]: 12.7 µM | TGI [9]: > 100 µM | GI50 [10]: 17 µM | TGI [10]: > 100 µM | GI50 [11]: 14.8 µM | TGI [11]: > 77 µM | GI50 [12]: 22.1 µM | TGI [12]: > 100 µM | GI50 [13]: 24.3 µM | TGI [13]: > 100 µM | GI50 [14]: 8.6 µM | TGI [14]: > 68.6 µM | GI50 [15]: 2.45 µM | TGI [15]: 28.3 µM | GI50 [16]: 13.2 µM | TGI [16]: > 82.6 µM | GI50 [17]: 34.5 µM | TGI [17]: > 100 µM | GI50 [18]: 34.3 µM | TGI [18]: > 100 µM | GI50 [19]: 24.5 µM | TGI [19]: > 100 µM | GI50 [20]: 51.2 µM | TGI [20]: > 100 µM | GI50 [21]: 0.297 µM | TGI [21]: 1.82 µM | GI50 [22]: 0.226 µM | TGI [22]: 1.13 µM | GI50 [23]: 15.5 µM | TGI [23]: > 100 µM | GI50 [24]: 66.8 µM | TGI [24]: > 100 µM | GI50 [25]: 4.51 µM | TGI [25]: > 100 µM | GI50 [26]: 19.8 µM | TGI [26]: > 100 µM | GI50 [27]: 4.85 µM | TGI [27]: > 100 µM | GI50 [28]: 38 µM | TGI [28]: > 100 µM | GI50 [29]: 9.62 µM | TGI [29]: > 100 µM | GI50 [30]: 27.6 µM | TGI [30]: > 100 µM | GI50 [31]: 11.8 µM | TGI [31]: 61.1 µM | GI50 [32]: 4.97 µM | TGI [32]: > 100 µM | GI50 [33]: 27.9 µM | TGI [33]: > 100 µM | GI50 [34]: 14.2 µM | TGI [34]: > 100 µM | GI50 [35]: 1.51 µM | TGI [35]: > 100 µM | GI50 [36]: 19.3 µM | TGI [36]: > 100 µM | GI50 [37]: 31.7 µM | TGI [37]: > 100 µM | GI50 [38]: 28.5 µM | TGI [38]: > 100 µM | GI50 [39]: 3.32 µM | TGI [39]: > 100 µM | GI50 [40]: 13.4 µM | TGI [40]: > 96 µM | GI50 [41]: > 85.3 µM | TGI [41]: > 100 µM | GI50 [42]: 12.4 µM | TGI [42]: > 100 µM | GI50 [43]: 29.3 µM | TGI [43]: > 100 µM | GI50 [44]: 6.8 µM | TGI [44]: 27.6 µM | GI50 [45]: 3.17 µM | TGI [45]: > 39.6 µM | GI50 [46]: 4.08 µM | TGI [46]: > 100 µM | GI50 [47]: 7.71 µM | TGI [47]: > 100 µM | GI50 [48]: 40 µM | TGI [48]: 98 µM | GI50 [49]: 32.4 µM | TGI [49]: > 100 µM | GI50 [50]: 2.36 µM | TGI [50]: > 100 µM | GI50 [51]: 0.485 µM | TGI [51]: > 100 µM | GI50 [52]: 9.98 µM | TGI [52]: > 100 µM | GI50 [53]: 4.52 µM | TGI [53]: > 100 µM | GI50 [54]: 2.52 µM | TGI [54]: > 89.7 µM | GI50 [55]: 2.52 µM | TGI [55]: > 100 µM | GI50 [56]: 2.08 µM | TGI [56]: > 55.8 µM | GI50 [57]: 15.8 µM | TGI [57]: > 100 µM

COc1ccc(C2=NN(C(=O)c3cc(OC)c(OC)c(OC)c3)C(c3ccc(N(C)C)cc3)C2)cc1 (configuration not stated)
GI50 [1]: 0.427 µM | TGI [1]: > 100 µM | GI50 [2]: 0.558 µM | TGI [2]: > 100 µM | GI50 [3]: 1 µM | TGI [3]: > 100 µM | GI50 [4]: 0.511 µM | TGI [4]: > 59.5 µM | GI50 [5]: 0.352 µM | GI50 [6]: 41.6 µM | TGI [6]: > 100 µM | GI50 [7]: 0.57 µM | GI50 [8]: 0.205 µM | TGI [8]: 0.478 µM | GI50 [9]: 0.295 µM | GI50 [10]: 0.529 µM | TGI [10]: > 100 µM | GI50 [11]: 0.284 µM | TGI [11]: 4.7 µM | GI50 [12]: 0.549 µM | TGI [12]: > 100 µM | GI50 [13]: 2.42 µM | TGI [13]: > 100 µM | GI50 [14]: 0.499 µM | TGI [14]: 2.87 µM | GI50 [15]: 0.496 µM | TGI [15]: > 100 µM | GI50 [17]: 1.72 µM | TGI [17]: 8.75 µM | GI50 [18]: 0.266 µM | TGI [18]: 1.56 µM | GI50 [19]: 0.682 µM | TGI [19]: > 100 µM | GI50 [20]: 1.84 µM | TGI [20]: > 100 µM | GI50 [21]: 1.28 µM | TGI [21]: > 100 µM | GI50 [22]: 0.337 µM | TGI [22]: 9.23 µM | GI50 [23]: 0.548 µM | TGI [23]: > 100 µM | GI50 [24]: 0.46 µM | TGI [24]: > 100 µM | GI50 [25]: 0.622 µM | TGI [25]: > 100 µM | GI50 [26]: 1.58 µM | TGI [26]: > 100 µM | GI50 [27]: 1.8 µM | TGI [27]: > 27.1 µM | GI50 [28]: 0.439 µM | GI50 [29]: 0.379 µM | GI50 [30]: 0.426 µM | TGI [30]: > 100 µM | GI50 [31]: 0.886 µM | TGI [31]: > 100 µM | GI50 [32]: 0.294 µM | TGI [32]: 1.52 µM | GI50 [33]: 0.357 µM | TGI [33]: 2.69 µM | GI50 [34]: 1.12 µM | TGI [34]: > 100 µM | GI50 [36]: 0.463 µM | TGI [36]: 58.2 µM | GI50 [37]: 0.496 µM | TGI [37]: > 21 µM | GI50 [38]: 0.739 µM | TGI [38]: > 100 µM | GI50 [39]: 0.535 µM | TGI [39]: > 100 µM | GI50 [40]: 0.252 µM | TGI [40]: 0.723 µM | GI50 [41]: 0.395 µM | GI50 [42]: 2.6 µM | TGI [42]: > 100 µM | GI50 [43]: 0.663 µM | TGI [43]: > 20 µM | GI50 [44]: 0.424 µM | TGI [44]: 4.88 µM | GI50 [45]: 97.6 µM | TGI [45]: > 100 µM | GI50 [58]: 1.43 µM | TGI [58]: > 100 µM | GI50 [46]: 0.426 µM | GI50 [47]: 1.74 µM | TGI [47]: > 23.7 µM | GI50 [48]: 83.5 µM | TGI [48]: > 100 µM | GI50 [49]: 0.551 µM | TGI [49]: > 100 µM | GI50 [50]: 0.318 µM | GI50 [51]: 0.397 µM | GI50 [52]: 0.473 µM | TGI [52]: > 100 µM | GI50 [53]: 3.87 µM | TGI [53]: > 100 µM | GI50 [54]: 0.346 µM | TGI [54]: 8.72 µM | GI50 [55]: 0.732 µM | TGI [55]: > 100 µM | GI50 [56]: 0.339 µM | TGI [56]: 40.4 µM | GI50 [57]: 0.736 µM | TGI [57]: > 100 µM
